Results reported in patent publication US12514805B2, “Composition for suppressing skin irritation or inhibiting sebum secretion” (AMOREPACIFIC CORPORATION, priority 2022, dated 2026).

Assays:
SREBP1 = assay: Genetic analysis of cholesterol/fatty acid transcription factors in sebaceous gland cells: SREBP1; type: cell-based, human; conditions: primary sebocytes, cultured 2 days, RT-PCR, FIG. 4
Protocol: (§1) Primary sebocyte and human sebocyte complete medium were purchased from Celprogen and used. The sebaceous gland cells were dispensed in a 60 mm cell culture dish at a density of 1.25×10^4 cells/dish, and then cultured in a CO2 incubator under the condition of 37° C. and 5% CO2 at about 80% confluency. Thereafter, 0 μM, 1 μM, and 10 μM of the compound of Chemical Formula 1 (Seletinoid G) were treated with the cells, respectively, and the cells were cultured for 2 days, and then changes in transcription factors related to sebum biosynthesis were confirmed.
(§2) The cells were treated with the material of Example 3, and then, cultured for 2 days, and then, the cell growth medium was removed. After that, 1 ml of Trizol (Invitrogen) was added to the cells, and RNA was isolated from the cells according to the RNA isolation method (Invitrogen). The RNA was quantified using a UV detector (HEWLETT PACKARD) at 260 nm and subject to RT-PCR (reverse transcription-polymerase chain reaction).
(§3) Taqman probes were used for genetic analysis of SREBP1(Hs02561944_s1), SREBP2(Hs01081781_m1), fatty acid synthase(FAS: Hs01005622_m1), Acetyl-CoA Carboxylase(ACACA: Hs01046047_m1) for each sample, and normalization was performed with respect to the complementary gene RPL13A (Hs04194366_g1), and the result is shown in FIG. 4.

SREBP2 = assay: Genetic analysis of cholesterol/fatty acid transcription factors in sebaceous gland cells: SREBP2; type: cell-based, human; conditions: primary sebocytes, cultured 2 days, RT-PCR, FIG. 4
Protocol: as §1, §2, §3

[1] = tested on: fatty acid synthase (FAS); assay: Genetic analysis of cholesterol/fatty acid transcription factors in sebaceous gland cells: FAS; type: cell-based, human; conditions: primary sebocytes, cultured 2 days, RT-PCR, FIG. 4
Protocol: as §1, §2, §3

[2] = tested on: Acetyl-CoA Carboxylase (ACACA); assay: Genetic analysis of cholesterol/fatty acid transcription factors in sebaceous gland cells: ACACA; type: cell-based, human; conditions: primary sebocytes, cultured 2 days, RT-PCR, FIG. 4
Protocol: as §1, §2, §3

[3] = tested on: SREBP1, SPERBP2, FAS, and ACACA; assay: Comparison of retinoic acid signal transduction pathway modifiers: sebum-related gene expression in sebaceous gland cells; type: cell-based, human; conditions: for effect on sebum-related gene expression (SREBP1, SPERBP2, FAS, ACACA): sebaceous gland cells treated with 1 μM and 10 μM of each material, FIG. 5
Protocol: Primary sebocyte and human sebocyte complete medium were purchased from Celprogen and used.
After that, 1 ml of Trizol (Invitrogen) was added to the cells, and RNA was isolated from the cells according to the RNA isolation method (Invitrogen). The RNA was quantified using a UV detector (HEWLETT PACKARD) at 260 nm and subject to RT-PCR (reverse transcription-polymerase chain reaction).
as §3

sebaceous gland cells = assay: Cytotoxicity in sebaceous gland cells during the comparison of Example 5; type: cell-based, human; conditions: 10 μM
[4] = tested on: retinoic acid receptor (RAR); conditions: from paper of the Society of Cosmetic Scientists of Korea (2003); cited from earlier work

O=C(/C=C/c1ccc2c(c1)OCO2)OCc1cc(=O)c(O)co1 [Seletinoid G, (5-hydroxy-4-oxopyran-2-yl)methyl (E)-3-(1,3-benzodioxol-5-yl)prop-2-enoate]
expression level of SREBP1 reduced by (SREBP1; 1 μM): about 40% | expression level of SREBP1 reduced by (SREBP1; 10 μM): about 60% | expression level of SPERBP2 reduced by (SREBP2; 1 μM): about 40% | expression level of SPERBP2 reduced by (SREBP2; 10 μM): ~55% | expression level of FAS reduced by ([1]; 1 μM): ~30% | expression level of FAS reduced by ([1]; 10 μM): ~45% | expression level of ACACA reduced by ([2]; 1 μM): ~30% | expression level of ACACA reduced by ([2]; 10 μM): about 60% | effect on sebum-related gene expression (SREBP1, SPERBP2, FAS, ACACA) [3]: effect of suppressing sebum-related gene expression | reduction of the expression level of the transcription factors (SREBP1a, SPERBP2, FAS, ACACA) ([3]; sebaceous gland cells, 10 μM): more than 60% | cytotoxicity (sebaceous gland cells): without causing cytotoxicity | binding to retinoic acid receptor (specificity) [4]: specifically binds to RARγ

CC1=C(/C=C/C(C)=C/C=C/C(C)=C/C(=O)Nc2ccc(O)cc2)C(C)(C)CCC1 [fenretinide, reference compound]
effect on sebum-related gene expression (SREBP1, SPERBP2, FAS, ACACA) [3]: effect of suppressing sebum-related gene expression

Clc1cccc(C(c2ccc3[nH]cnc3c2)n2ccnc2)c1 (stereo not drawn) [liarozole, reference compound]
effect on sebum-related gene expression (SREBP1, SPERBP2, FAS, ACACA) [3]: did not show a significant difference

CC1=C(/C=C/C(C)=C/C=C/C(C)=C/C(=O)O)C(C)(C)CCC1 [retinoic acid, reference compound]
cytotoxicity (sebaceous gland cells): some cytotoxicity
